Data on 5 molecules can be found in the kinase profiling compilation of Christmann-Franck et al. (2016).

Conditions in all cases: compound 10.0 µM
Assay [1] has as its target SGK1 (human) (UniProt O00141).
Assay [2] addresses PRKG1 (human) (UniProt Q13976).
Assay [3] addresses MAP4K4 (human) (UniProt O95819).
In assay [4] the target is ABL1 (human) (UniProt P00519).
Assay [5] addresses CAMK2A or CAMK2B or CAMK2D or CAMK2G (human) (UniProt Q13555+Q13557+Q9UQM7+Q13554).
Assay [6] has as its target DYRK1A (human) (UniProt Q13627).
The target of assay [7] is KDR (human) (UniProt P35968).
For assay [8], the target named is FGFR1 (human) (UniProt P11362).
The target in assay [9] is RPS6KB1 (human) (UniProt P23443).
In assay [10] the target is MET (human) (UniProt P08581).
In assay [11] the target is PIM2 (human) (UniProt Q9P1W9).
Assay [12] deals with MAP3K7 (human) (UniProt O43318).
The target of assay [13] is AKT1 (human) (UniProt P31749).
The target of assay [14] is CAMK4 (human) (UniProt Q16566).
For assay [15], the target named is IGF1R (human) (UniProt P08069).
In assay [16] the target is MARK1 (human) (UniProt Q9P0L2).
Assay [17] has as its target CHEK1 (human) (UniProt O14757).
In assay [18] the target is MAPKAPK5 (human) (UniProt Q8IW41).
Assay [19] deals with INSR (human) (UniProt P06213).
Assay [20] addresses PAK2 (human) (UniProt Q13177).

Sequence of CAMK2A or CAMK2B or CAMK2D or CAMK2G (human) (Q13554 whole entry, looked up): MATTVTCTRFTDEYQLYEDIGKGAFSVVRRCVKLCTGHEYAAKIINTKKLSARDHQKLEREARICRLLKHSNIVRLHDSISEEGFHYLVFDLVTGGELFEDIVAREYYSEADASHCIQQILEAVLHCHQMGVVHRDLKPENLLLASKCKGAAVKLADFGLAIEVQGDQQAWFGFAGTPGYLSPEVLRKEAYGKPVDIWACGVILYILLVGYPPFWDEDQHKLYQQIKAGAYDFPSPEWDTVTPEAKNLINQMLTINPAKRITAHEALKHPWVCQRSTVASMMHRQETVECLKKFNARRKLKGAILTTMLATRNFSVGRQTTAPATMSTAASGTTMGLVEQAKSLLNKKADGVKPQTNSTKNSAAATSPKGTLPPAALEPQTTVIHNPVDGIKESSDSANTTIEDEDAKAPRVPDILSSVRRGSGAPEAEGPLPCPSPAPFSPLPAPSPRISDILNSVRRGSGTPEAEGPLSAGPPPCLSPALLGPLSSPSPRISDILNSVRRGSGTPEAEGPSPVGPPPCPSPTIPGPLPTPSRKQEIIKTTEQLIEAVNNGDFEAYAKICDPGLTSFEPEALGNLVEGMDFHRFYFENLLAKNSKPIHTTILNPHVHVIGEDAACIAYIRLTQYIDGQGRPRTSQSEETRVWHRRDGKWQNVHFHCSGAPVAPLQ
Sequence of CAMK2A or CAMK2B or CAMK2D or CAMK2G (human) (Q13555 whole entry, looked up): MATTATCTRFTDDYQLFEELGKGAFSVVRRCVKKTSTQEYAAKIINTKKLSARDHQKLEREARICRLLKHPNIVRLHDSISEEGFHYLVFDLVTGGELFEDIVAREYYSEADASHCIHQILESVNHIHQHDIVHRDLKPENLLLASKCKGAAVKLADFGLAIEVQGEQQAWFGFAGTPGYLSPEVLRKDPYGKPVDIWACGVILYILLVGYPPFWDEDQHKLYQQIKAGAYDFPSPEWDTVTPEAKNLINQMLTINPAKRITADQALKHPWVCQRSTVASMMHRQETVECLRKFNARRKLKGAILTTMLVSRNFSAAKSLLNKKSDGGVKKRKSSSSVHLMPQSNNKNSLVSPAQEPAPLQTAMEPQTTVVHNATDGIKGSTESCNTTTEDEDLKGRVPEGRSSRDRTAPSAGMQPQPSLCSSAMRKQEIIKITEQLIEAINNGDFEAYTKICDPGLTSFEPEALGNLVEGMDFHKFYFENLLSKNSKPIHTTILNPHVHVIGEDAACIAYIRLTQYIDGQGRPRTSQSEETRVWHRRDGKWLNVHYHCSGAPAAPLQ
Sequence of CAMK2A or CAMK2B or CAMK2D or CAMK2G (human) (Q13557 whole entry, looked up): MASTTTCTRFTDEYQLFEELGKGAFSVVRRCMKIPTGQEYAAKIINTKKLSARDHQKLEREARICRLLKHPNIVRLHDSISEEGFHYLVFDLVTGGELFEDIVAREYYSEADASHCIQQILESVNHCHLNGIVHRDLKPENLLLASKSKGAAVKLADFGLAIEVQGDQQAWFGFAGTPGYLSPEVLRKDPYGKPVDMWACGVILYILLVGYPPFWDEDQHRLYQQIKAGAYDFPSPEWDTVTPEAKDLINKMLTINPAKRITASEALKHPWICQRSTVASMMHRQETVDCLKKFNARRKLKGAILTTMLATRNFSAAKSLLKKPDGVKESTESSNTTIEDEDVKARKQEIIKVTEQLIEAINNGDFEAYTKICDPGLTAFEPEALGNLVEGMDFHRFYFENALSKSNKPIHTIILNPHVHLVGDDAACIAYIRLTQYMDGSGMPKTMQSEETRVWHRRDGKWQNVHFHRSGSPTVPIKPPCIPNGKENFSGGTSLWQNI
Sequence of CAMK2A or CAMK2B or CAMK2D or CAMK2G (human) (Q9UQM7 whole entry, looked up): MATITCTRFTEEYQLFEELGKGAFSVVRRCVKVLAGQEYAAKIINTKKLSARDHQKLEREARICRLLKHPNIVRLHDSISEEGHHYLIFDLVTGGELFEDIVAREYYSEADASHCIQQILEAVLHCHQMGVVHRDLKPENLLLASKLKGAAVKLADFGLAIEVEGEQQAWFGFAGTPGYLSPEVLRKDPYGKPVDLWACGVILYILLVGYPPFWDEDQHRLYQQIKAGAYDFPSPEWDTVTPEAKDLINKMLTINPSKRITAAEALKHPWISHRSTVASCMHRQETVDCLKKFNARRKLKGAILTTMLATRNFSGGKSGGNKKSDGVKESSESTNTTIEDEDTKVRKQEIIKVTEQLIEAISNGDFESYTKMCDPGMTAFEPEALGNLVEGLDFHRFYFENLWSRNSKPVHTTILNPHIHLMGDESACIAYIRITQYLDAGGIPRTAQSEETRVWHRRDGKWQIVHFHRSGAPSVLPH
Sequence of RPS6KB1 (human) (P23443 whole entry, looked up): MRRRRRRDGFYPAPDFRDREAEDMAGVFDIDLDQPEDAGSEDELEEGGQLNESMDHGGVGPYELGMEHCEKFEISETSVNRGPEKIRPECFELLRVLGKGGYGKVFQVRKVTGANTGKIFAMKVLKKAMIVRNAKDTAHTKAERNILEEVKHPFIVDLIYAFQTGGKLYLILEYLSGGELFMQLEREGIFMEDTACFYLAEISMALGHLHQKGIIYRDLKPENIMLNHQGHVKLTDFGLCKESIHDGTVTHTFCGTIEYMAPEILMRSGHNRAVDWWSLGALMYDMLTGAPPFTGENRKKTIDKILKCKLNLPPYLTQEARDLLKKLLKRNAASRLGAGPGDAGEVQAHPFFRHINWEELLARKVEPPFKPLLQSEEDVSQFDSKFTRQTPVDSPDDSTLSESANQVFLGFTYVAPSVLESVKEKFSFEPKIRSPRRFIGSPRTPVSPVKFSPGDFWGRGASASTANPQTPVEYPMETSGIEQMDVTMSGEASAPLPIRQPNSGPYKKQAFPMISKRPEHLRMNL
Sequence of CAMK4 (human) (Q16566 whole entry, looked up): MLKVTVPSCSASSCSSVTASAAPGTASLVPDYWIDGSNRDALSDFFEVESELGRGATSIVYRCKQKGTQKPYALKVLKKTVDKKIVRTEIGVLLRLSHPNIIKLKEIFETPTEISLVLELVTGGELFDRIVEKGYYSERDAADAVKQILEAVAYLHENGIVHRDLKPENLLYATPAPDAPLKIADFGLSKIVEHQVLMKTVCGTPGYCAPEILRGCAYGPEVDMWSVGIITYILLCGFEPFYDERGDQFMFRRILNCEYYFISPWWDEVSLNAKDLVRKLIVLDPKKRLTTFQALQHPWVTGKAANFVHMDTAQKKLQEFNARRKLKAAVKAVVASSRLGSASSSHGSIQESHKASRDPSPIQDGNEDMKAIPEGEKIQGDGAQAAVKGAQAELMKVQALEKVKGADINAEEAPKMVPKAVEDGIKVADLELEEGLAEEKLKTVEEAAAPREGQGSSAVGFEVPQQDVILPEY
Sequence of IGF1R (human) (P08069 whole entry, looked up): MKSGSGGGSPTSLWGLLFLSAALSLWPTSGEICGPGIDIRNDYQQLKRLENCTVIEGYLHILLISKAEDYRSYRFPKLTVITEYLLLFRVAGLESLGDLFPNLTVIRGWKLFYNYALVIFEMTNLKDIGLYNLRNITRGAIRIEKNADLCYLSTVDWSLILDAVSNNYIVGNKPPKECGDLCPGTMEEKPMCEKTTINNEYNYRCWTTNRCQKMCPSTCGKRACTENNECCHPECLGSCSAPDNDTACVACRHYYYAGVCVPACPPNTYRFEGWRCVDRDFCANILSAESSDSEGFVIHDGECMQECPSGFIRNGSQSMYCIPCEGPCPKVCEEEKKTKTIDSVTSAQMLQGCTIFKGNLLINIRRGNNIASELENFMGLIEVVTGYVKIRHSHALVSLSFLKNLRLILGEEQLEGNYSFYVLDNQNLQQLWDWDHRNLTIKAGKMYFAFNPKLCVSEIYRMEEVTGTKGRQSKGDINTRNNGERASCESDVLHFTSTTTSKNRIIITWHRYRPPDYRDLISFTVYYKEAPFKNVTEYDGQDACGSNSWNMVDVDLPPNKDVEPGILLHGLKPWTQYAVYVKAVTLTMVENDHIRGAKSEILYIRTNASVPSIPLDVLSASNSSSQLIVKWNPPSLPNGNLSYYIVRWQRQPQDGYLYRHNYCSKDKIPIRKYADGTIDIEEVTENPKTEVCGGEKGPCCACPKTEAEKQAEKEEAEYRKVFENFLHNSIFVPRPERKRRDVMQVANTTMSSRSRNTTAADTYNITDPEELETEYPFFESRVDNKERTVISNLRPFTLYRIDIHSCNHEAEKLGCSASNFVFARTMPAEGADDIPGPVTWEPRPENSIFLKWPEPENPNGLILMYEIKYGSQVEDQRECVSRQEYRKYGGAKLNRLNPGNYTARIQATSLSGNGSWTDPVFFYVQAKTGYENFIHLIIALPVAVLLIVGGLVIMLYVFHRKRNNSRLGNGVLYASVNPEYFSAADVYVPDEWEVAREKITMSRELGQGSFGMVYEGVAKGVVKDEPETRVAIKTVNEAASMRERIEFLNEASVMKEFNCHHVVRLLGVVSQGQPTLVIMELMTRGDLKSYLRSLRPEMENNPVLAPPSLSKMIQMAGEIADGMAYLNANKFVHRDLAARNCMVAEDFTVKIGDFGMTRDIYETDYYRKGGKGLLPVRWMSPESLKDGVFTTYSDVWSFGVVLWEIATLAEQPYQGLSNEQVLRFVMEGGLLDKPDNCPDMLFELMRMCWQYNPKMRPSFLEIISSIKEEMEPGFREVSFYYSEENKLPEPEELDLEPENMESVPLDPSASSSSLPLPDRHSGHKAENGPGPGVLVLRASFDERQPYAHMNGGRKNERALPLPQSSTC
Sequence of PIM2 (human) (Q9P1W9 whole entry, looked up): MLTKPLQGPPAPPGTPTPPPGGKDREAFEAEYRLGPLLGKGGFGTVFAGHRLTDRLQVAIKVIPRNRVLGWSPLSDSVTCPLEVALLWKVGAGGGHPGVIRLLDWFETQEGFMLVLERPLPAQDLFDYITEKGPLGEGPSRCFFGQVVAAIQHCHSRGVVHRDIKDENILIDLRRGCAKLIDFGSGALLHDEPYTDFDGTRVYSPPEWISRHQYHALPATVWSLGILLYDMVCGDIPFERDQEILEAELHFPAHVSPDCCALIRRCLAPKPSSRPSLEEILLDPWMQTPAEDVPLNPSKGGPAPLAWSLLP

What is called inhibition is the drop in the measured response relative to a control, in per cent. For the molecule `C[C@@H](NC(=O)c1c[nH]c2ncc(-c3nn(C)c4cc(Cl)ccc34)nc12)C(=O)N1CC(C#N)C1`, the inhibition was -17% in [1]; 0% in [2]; -17% in [3]; -13% in assay [4]; -179% in assay [5]; -13% in [6]. Moreover, the inhibition is -18% in assay [7]; -11% in assay [8]; -12% in assay [9]; -15% in assay [10]; -15% in assay [11]; -24% in assay [12]. Also, the inhibition in assay [13] is -11%; in assay [14], -11%; in assay [15], -12%; in assay [16], -11%.
Turning to `C[C@@H](NC(=O)c1c[nH]c2ncc(-c3nn(C)c4cc(Cl)cc(F)c34)nc12)C(=O)N1CC(C#N)C1`, the inhibition is -28% in [17]; -52% in assay [5]; -33% in [9]; -11% in [12]; -24% in assay [14]; -30% in assay [15].
`C[C@@H](NC(=O)c1c[nH]c2ncc(-c3cn(C)c4cc(Cl)ccc34)nc12)C(=O)N1CC(C#N)C1`: the inhibition in assay [5] was -53%; in assay [9] it was -14%; in [11] it was -18%.
Take `C[C@@H](NC(=O)c1c[nH]c2ncc(-c3ncn4cc(F)cc(F)c34)nc12)C(=O)N1CC(C#N)C1`: the inhibition in assay [2] is 0%; in assay [18] it was -12%; in [5], -51%; in [9], -42%.
As to `CC[C@@H](NC(=O)c1c[nH]c2ncc(-c3nn(C)c4cc(Cl)ccc34)nc12)C(=O)N1CC(C#N)C1`, the inhibition in [19] was -11%; in [5], -35%; in assay [9], -12%; in [20], -29%.
